The numbers were not newly measured in US20240285546A1, “TRANSDERMAL THERAPEUTIC SYSTEM CONTAINING AGOMELATINE” (LTS LOHMANN Therapie-Systeme AG, priority 2019, published 2024), which cites them from elsewhere.

Assay in data set [1]: not given
This is another data set of the same source.

Structures are written as SMILES.

On to `COc1ccc2cccc(CCNC(C)=O)c2c1` [agomelatine, N-(2-(7-Methoxy-1-naphthyl)ethyl)acetamide], for which the Volume of distribution (in steady state) was 35 L. Besides, where the note is “oral agomelatine”, the Oral absorption is on record as above 80% and the Overall bioavailability result is recorded as “less than 5%”. Besides, the “Increase in agomelatine exposure (AUC and cmax)” value (patients with moderate hepatic impairment compared to healthy subjects) was “up to 140 fold”. Also, the Solubility in water result in data set [1] is on record as “poorly soluble”.
